Assay results published in US7241784B2, “Carboxylic acid derivative and a pharmaceutical composition containing the derivative as active ingredient” (Ono Pharmaceutical Co., Ltd., priority 1998, dated 2007).

Experiments:
human PPARγ = molecular target: T1, human PPARγ (Homo sapiens, UniProt P37231); assay: Luciferase assay using human PPARγ (Gal4-PPARγ LBD chimeric receptor, CV-1 cells); type: cell-based; conditions: PPARγ agonistic activity, compound 10 μM, luciferase activity of troglitazone (10 μM) defined as 1.0, 42 hours
T1 construct: expressed in transfected cells; host or cells: CV-1 cells
T1 sequence (P37231 204-505): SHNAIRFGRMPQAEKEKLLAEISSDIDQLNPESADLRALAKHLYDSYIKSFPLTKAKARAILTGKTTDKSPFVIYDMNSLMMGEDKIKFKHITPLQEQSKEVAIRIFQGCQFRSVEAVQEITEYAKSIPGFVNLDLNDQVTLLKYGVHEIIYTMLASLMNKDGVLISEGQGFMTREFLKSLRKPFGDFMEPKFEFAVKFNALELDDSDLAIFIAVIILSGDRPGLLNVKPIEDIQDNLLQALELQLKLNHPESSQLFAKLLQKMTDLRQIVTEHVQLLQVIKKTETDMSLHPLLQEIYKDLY

human PPARα = molecular target: T2, human PPARα (Homo sapiens, UniProt Q07869); assay: Luciferase assay using human PPARα (Gal4-PPARα LBD chimeric receptor, CV-1 cells); type: cell-based; conditions: PPARα agonistic activity, compound 10 μM, luciferase activity of carbacyclin (10 μM) defined as 1.0, 42 hours
T2 construct: expressed in transfected cells; host or cells: CV-1 cells
T2 sequence (Q07869 167-468): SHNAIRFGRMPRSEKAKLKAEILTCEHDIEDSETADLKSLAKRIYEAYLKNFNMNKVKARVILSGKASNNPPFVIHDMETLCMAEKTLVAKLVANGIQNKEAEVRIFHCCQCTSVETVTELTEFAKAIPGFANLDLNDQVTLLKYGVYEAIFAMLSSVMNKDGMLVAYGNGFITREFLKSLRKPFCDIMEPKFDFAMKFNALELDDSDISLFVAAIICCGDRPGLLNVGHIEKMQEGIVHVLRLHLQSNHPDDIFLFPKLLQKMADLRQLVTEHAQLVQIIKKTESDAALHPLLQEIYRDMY

SD rats = assay: Hypocholesterolemic and hypolipidemic effects in SD rats given hypercholesterolemic food; type: in vivo; conditions: male SD rats, oral administration in 0.5% CMC, then hypercholesterolemic food, blood at 9:00 of the next day, 5 rats per group; for TC level: control 154 ± 8; for TG level: control 158 ± 19; for NEFA levle: control 537 ± 69
Description: Hypocholesterolemic and Hypolipidemic Effects
Male, six-weeks old SD rats (five rats per group) were left to take milled diet and water ad libitum and were acclimatized for 1 week.
At 9:00 on the first day of the experiment (Day 0), blood sampling was done from tail vein. The rats were divided into some groups according to body weight, triglyceride (TG), non-esterified fatty acid (NEFA) and total cholesterol (TC) levels to minimize differences of the parameters among the groups. At 17:00 of the day, the compound of the present invention dissolved in 0.5% aqueous solution of carboxymethylcellulose (CMC) was orally administered, and thereafter, with hypercholesterolemic food (5.5% peanut oil, 1.5% cholesterol and 0.5% cholic acid were mixed with milled CRF-1 diet, Charles River Inc.) was given to the rats.
At 9:00 of the next day, blood sampling was done from tail vein. The lipid levels in blood (TG, NEFA and TC levels) after administration of the compounds of the present invention were measured. There was no significant difference of the food intake between the control group (provided only 0.5% CMC) and the group treated with the compounds of the present invention.

KKAy/Ta mice = assay: Hypoglycemic and hypolipidemic effects in KKAy/Ta mice; type: in vivo; conditions: male KKAy/Ta mice, food mixture containing 0.03% (w/w) compound for two days, 5 mice per group; for TG level on Day 3: control 523 ± 144; for glycemic level on Day 3: control 638 ± 63
Description: Hypoglycemic and Hypolipidemic Effects
Male, 7-weeks old KKAy/Ta mice weighed from 35 to 40 g (five mice per group) were pre-breaded for approximately one week and acclimatized for three days on milled diet. On the first day of the experiment (Day 0), mice were divided into some groups according to weight, plasma glucose and triglyceride (TG) levels to minimize the differences among groups. From the next day for two days they were given compounds by food mixture containing 0.03% (w/w) of the compound of the present invention or by milled diet only. At 13:00 of the third day, blood samples were collected to measure glucose and TG levels. Additionally, there was no significant difference in the food intake between control group (milled diet only) and compounds-treated group (milled diet containing 0.03% compounds).

Row | Compound | Relative Activity to a positive control compound (troglitazone = 1) (human PPARγ) | Relative Activity to a positive control compound (carbacyclin = 1) (human PPARα) | TC level (SD rats) | TG level (SD rats) | NEFA levle (SD rats) | TG level on Day 3 (KKAy/Ta mice) | glycemic level on Day 3 (KKAy/Ta mice)
1 | Cc1oc(-c2ccccc2)nc1CCOCC#CCSCC(=O)O [Example 5 (2), 2-(4-(2-(5-methyl-2-phenyloxazol-4-yl)ethoxy)-2-butynylthio)acetic acid] | 2.6 | 2.9 | – | – | – | – | –
2 | Cc1oc(-c2ccccc2)nc1CCOCCCCSCC(=O)O [Example 5 (8), 2-(4-(2-(5-methyl-2-phenyloxazol-4-yl)ethoxy)butylthio)acetic acid] | 2.3 | 2.2 | – | – | – | – | –
3 | Cc1ccc(-c2nc(CCOCC#CCSCC(=O)O)c(C)o2)cc1 [Example 5 (10), 2-(4-(2-(5-methyl-2-(4-methylphenyl)oxazol-4-yl)ethoxy)-2-butynylthio)acetic acid] | 2.7 | 1.5 | 88 ± 6 mg/dL | 95 ± 17 mg/dL | 334 ± 55 μEq/l | 111 ± 38 mg/dL | 339 ± 74 mg/dL
4 | Cc1oc(-c2ccc3c(c2)OCO3)nc1CCOCC#CCSCC(=O)O [Example 5 (11), 2-(4-(2-(5-methyl-2-(1,3-dioxaindan-5-yl)oxazol-4-yl)ethoxy)-2-butynylthio)acetic acid] | 2.3 | 1.7 | 91 ± 6 mg/dL | 90 ± 14 mg/dL | 227 ± 17 μEq/l | 140 ± 75 mg/dL | 306 ± 72 mg/dL
